Experimental data as given in patent publication US11458138B2 (Novartis AG, priority 2017, dated 2022).

Key:
[1] = system: YAP nuclear translocation in HaCaT cells; assay: YAP Translocation Assay (HaCaT Cells); assay type: cell-based, human; settings: Homo sapiens, 24 hours
Outline: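 HaCaT cells (20,000/well) in DMEM + 10% FBS were plated overnight at 37° C, then exposed to compound for 24 h at 37° C. Cells were fixed with PFA, permeabilized with 0.1% Triton/1.5% BSA and imaged by high-content imaging.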

rabbit corneal surface = assay: Rabbit model of limbal stem cell deficiency, transplantation of expanded LSCs; assay type: in vivo; settings: LSCs expanded in medium comprising the compound, combined with GelMA, delivered via contact lens
Text: FIG. 7B: Arrow is pointing to absence of keratin 19 staining. […] FIG. 7C: Arrow is pointing to absence of keratin-12 staining. […] FIG. 7D: Arrow is pointing to areas of positive keratin-19 staining.

limbal stem cells (LSCs) = assay: Differentiation of expanded LSCs into corneal epithelium cells (p63alpha / keratin 12); assay type: cell-based, human; settings: transferred to conditions that enable differentiation
Text: Shown are views where the transition from the p63alpha-positive cell identity to the keratin-12 identity are occurring.
These characteristics can be observed by immunohistochemistry or FACS.

[2] = target: Human LATS2 kinase domain protein (Homo sapiens (Human), UniProt Q9NRM7); assay: LATS2 Biochemical Caliper Assay (Compound Examples 1-290); settings: 400 micromolar ATP
Procedure: Human LATS2 kinase domain protein was purchased from Carnabio (catalogue number 01-124), which harbors the catalytic domain of amino acids 553-1088, and was co-purified with human His-tagged MOBKL1A (NP_775-739). 5 microlitre of enzyme buffer, 100 nL of compounds and 5 microlitre of localising aid buffer were added into 384-well plates. […] The plates were incubated at 25° C. for 3 hours. 40 microlitre of stop buffer with 25 mM EDTA (NanoSyn) was added to each well to terminate the reaction. Localising aids and products were separated electrophoretically using the microfluidic-based Caliper Labchip 3000 Drug Discovery System (Caliper Life Sciences). Plates were read using blue laser excitation and green fluorescence detection and quantified by fluorescence intensity.

[3] = system: Phospho-YAP (Ser127) in JHH-5 cells; assay: pYAP HTRF Assay (JHH-5 cells); assay type: cell-based; settings: 2 hours
Outline: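 JHH-5 cells (24000/well) cultured 24 h at 37 °C in William's E with 10% FBS, then exposed to compounds for 2 h at 37 °C. After lysis, pYAP d2/cryptate antibodies incubated 18 h at room temperature; HTRF ratio 665/620 nm ×10000.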

[4] = system: Phospho-YAP (SER127) in HaCaT cells; assay: pYAP HTRF Assay (HaCaT Cells); assay type: cell-based, human; settings: Homo sapiens, 2 hours
Outline: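 HaCaT cells at 5500 cells/well were cultured 48 hours at 37° C, then treated with compound for 2 hours. Phospho-YAP (Ser127) was detected by HTRF after an overnight (20 hrs) room-temperature incubation, read as the 665 nm/620 nm ratio.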

LATS1 = LATS1 (Homo sapiens (Human), UniProt O95835); assay: LATS1 biochemical assay (Table 1A, Compound Examples 1-290; method in the earlier part)
[5] = system: hepatic progenitor cells (HPC); assay: Mouse Hepatic Progenitor Cell Proliferation Assay; assay type: cell-based; settings: 96 h, mean number of nuclei per organoid, 4 days
Procedure: The progenitor cells were isolated from C57Bl/6 wild type mice and expanded as described (Lu, W. Y. et al., Nat. Cell Biol. 17, 971-983 (2015)). Cells are stocked in liquid nitrogen, thawed on need and tested using the following protocol: HPC are harvested from their collagen I coated culture vessel (Corning; cat. Number 354487), counted and assessed for viability using a CEDEX cell counter (Roche). After centrifugation, 12 million cells are re-suspended in 2 ml of William's E Medium (Life Technologies; cat. Number 22551089) supplemented with 10% Fetal Bovine Serum (Amimed; cat. Number 2-01F10-I); 1% Penicillin/Streptomycin (Sigma; cat. Number 15140-122); 17.6 mM of NaHCO3 (Sigma; cat. Number S8761); 20 mM HEPES (Gibco; cat. Number H3375); 10 mM Nicotinamide (Sigma; cat. Number N0636-100); 14 mM glucose (Sigma; cat. Number G7021); 1 mM Sodium Pyruvate (Sigma; cat. Number TMS-005); Insulin Transferrin Selenium (ITS) diluted 100 times from stock solution (Sigma; cat. Number 13148); 100 nM Dexamethasone (Sigma; cat. Number D4902); 0.2 mM ascorbic acid (Sigma; cat. Number A7506-100G); 10 ng/ml recombinant human IL-6 (Preprotech; cat. Number 200-06); 10 ng/ml murine HGF (Preprotech; cat. Number 315-23; Lot. 0711S527); 10 ng/ml murine EGF (Preprotech; cat. Number 315-09; Lot. 0217179-1). Six milliliters of Matrigel (Corning; cat. Number 354277; Lot: 5187006) are added to the cell/media solution, thus the final cell concentration is 1.5 million HPC per milliliter, in 25% culture medium and 75% Matrigel. Five microliter (p1) of the cell/Matrigel suspension are transferred in each well of the clear bottom 96 well assay plate (Corning; cat. Number 356649) using the Star dispenser (Hamilton). […]
Plates are imaged with the CV7000 imager (Yokogawa) at a 10 fold magnification using the bright field lamp (lamp power: 10%; exposure time: 20 ms) and the 405 nanometer laser (laser power: 100%; exposure time 200 ms). Four different images per well were acquired and analyzed with the Yokogawa image analysis software (YAS). […]

[6] = target: Human LATS1 kinase domain protein (Homo sapiens (Human), UniProt O95835); assay: LATS1 Biochemical Caliper Assay (Compound Examples 291-335); settings: Caliper EZ Reader
Procedure: The LATS1 biochemical Caliper assay was performed as following.
Human LATS1 kinase domain protein was purchased from Carnabio (catalogue number 01-123; lot 15CBS-0098D). Human LATS1, catalytic domain [589-1130(end) amino acids of accession number NP_004681.1] was co-expressed as N-terminal GST-fusion protein (90 kDa) with human His-tagged MOBKL1A [1-216(end) amino acids of accession number NP_775739.1] using baculovirus expression system. GST-LATS1 was purified by using glutathione sepharose chromatography. The substrate (Fluo-SGKtide; Peptide for LATS1; lot BS-41067) has the following sequence: 5-Fluo-Nva-[…]-amide (SEQ ID NO: 27) x TFA and was purchased from Biosyntan.
The reaction is performed in reaction buffer containing 50 mM Hepes pH 7,5; 0.02% Tween20; 0.02% BSA; 1 mM DTT; 10 uM Na3VO4 and 10 mM beta-Glycerolphosphat and fresh added 1 mM MgCl2 and qsp H2O.
The substrate solution (2× conc.) in Reaction Buffer contains 300 μM ATP and 4 μM Fluo-SGKtide.
The kinase solution (2× conc.) in Reaction Buffer contains 20 nM LATS1 kinase. 4.5 μL of 2× conc. Kinase solution, 50 nL of 1.8 mM compounds and 4.5 μL of substrate solution were added into 384-well plates black small volume from Greiner and incubated at 32° C. for 1 hour. 15 μL of stop buffer containing 100 mM Hepes pH 7,5; 5% DMSO; 0.1% Coating reagent; 10 mM EDTA and 0.02% Brij35 and qsp H2O to each well to terminate the reaction.
Substrates and products were electrophoretically separated using the microfluidic-based Caliper EZ Reader System (Caliper Life Sciences) using a 12 sipper chip (cat 760404). The separation takes place in Coating Buffer (idem Stop buffer) and containing 0.1% Coating reagent CR3 and 0.5% coating reagent CR8 (Perkin Elmer).
Plates were read using a LED with an excitation at 488 nm and a detection at 520 nm to 5 quantify the fluorescence intensity.

Chain of LATS1 (O95835 whole entry, looked up): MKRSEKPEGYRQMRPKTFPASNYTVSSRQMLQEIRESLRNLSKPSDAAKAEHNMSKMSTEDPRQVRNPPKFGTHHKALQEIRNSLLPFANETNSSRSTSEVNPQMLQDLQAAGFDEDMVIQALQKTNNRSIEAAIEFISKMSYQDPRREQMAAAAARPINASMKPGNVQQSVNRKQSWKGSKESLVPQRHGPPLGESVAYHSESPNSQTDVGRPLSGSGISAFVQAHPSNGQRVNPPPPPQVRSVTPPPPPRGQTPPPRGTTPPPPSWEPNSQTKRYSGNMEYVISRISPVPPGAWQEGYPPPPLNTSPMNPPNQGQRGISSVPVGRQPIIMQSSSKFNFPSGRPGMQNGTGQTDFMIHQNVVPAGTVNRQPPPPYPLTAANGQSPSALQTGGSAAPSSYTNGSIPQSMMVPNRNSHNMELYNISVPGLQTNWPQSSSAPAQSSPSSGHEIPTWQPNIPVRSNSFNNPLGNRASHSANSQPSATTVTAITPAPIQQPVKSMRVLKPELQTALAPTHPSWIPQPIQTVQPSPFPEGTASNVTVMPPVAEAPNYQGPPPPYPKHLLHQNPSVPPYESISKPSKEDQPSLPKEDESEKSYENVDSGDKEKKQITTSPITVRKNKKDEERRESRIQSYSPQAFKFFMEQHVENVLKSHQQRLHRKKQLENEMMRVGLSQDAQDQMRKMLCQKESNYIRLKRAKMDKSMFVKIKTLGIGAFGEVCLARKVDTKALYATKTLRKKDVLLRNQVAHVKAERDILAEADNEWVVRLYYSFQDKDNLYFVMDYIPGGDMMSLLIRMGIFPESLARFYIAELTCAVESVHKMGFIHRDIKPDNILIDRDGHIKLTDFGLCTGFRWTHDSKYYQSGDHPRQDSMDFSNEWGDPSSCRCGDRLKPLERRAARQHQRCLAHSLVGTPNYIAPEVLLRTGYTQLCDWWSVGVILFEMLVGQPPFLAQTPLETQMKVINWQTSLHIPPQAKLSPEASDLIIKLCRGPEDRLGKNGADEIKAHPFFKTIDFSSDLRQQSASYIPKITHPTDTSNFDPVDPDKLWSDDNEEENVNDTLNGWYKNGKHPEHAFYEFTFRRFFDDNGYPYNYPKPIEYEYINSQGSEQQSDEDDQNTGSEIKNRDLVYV
Chain of LATS1 (Q7L9L4 whole entry partner, looked up): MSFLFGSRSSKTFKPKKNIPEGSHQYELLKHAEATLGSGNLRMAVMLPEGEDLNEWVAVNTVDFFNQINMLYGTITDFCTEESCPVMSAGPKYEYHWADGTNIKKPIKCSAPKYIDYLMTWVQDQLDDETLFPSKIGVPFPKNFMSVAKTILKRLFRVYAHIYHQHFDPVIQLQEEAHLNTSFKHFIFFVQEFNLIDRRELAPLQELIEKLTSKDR
Chain of Human LATS2 kinase domain protein (Q9NRM7 553-1088): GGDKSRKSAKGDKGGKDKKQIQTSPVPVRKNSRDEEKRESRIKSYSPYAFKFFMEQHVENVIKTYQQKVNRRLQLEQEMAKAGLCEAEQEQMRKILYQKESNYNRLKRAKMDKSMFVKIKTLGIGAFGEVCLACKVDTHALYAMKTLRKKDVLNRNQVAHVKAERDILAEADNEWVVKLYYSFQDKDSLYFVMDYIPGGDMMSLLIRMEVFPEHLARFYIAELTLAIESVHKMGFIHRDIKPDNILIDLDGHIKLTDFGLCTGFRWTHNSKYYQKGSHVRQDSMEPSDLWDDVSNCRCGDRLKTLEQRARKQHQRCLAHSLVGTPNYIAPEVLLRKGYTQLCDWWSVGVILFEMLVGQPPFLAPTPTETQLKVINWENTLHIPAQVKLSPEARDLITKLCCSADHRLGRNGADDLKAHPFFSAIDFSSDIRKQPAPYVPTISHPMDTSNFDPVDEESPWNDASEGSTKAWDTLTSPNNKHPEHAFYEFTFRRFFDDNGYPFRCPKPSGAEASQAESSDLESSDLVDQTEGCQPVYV
Chain of Human LATS2 kinase domain protein (Q7L9L4 whole entry partner, the tested form may be a part): as the sequence (Q7L9L4 whole entry partner, looked up) above
Chain of Human LATS1 kinase domain protein (O95835 whole entry, looked up, the tested form may be a part): as the sequence (O95835 whole entry, looked up) above
Chain of Human LATS1 kinase domain protein (Q7L9L4 whole entry partner, looked up, the tested form may be a part): as the sequence (Q7L9L4 whole entry partner, looked up) above

| Compound | EC50 [1] [nM] | conjunctivalization (keratin-19) in transplanted eye (rabbit corneal surface) | corneal epithelium regeneration (keratin-12) in transplanted eye (rabbit corneal surface) | differentiation of expanded LSCs into corneal epithelium cells (keratin 12) (limbal stem cells (LSCs)) | IC50 [2] [nM] | IC50 [3] [nM] | IC50 [4] [nM] | IC50 (LATS1) [nM] | EC50 [5] [nM] | IC50 [6] [nM] |
| --- | --- | --- | --- | --- | --- | --- | --- | --- | --- | --- |
| CC(C)(O)COCC(C)(C)Nc1nc(-c2ccncc2)nc2cnccc12 [Example 12, 2-methyl-1-(2-methyl-2-{[2-(pyridin-4-yl)pyrido[3,4-d]pyrimidin-4-yl]amino}propoxy)propan-2-ol] | 1750 | prevented conjunctivalization by keratin-19-positive conjunctival cells | lead to regeneration of a keratin-12-positive corneal epithelium | can differentiate into corneal epithelium cells | 15 | 2900 | 1150 | 4 | – | – |
| C[C@H](N(C)c1nc(-c2ccncc2)nc2cnccc12)C(F)(F)F [Example 48a, N-methyl-2-(pyridin-4-yl)-N-[(2S)-1,1,1-trifluoropropan-2-yl]pyrido[3,4-d]pyrimidin-4-amine] | – | – | – | – | – | – | – | – | 260 | – |
| CC(C)(Nc1nc(-c2ccncc2)nc2cnccc12)C(F)(F)F [Example 58, 2-(pyridin-4-yl)-N-(1,1,1-trifluoro-2-methylpropan-2-yl)pyrido[3,4-d]pyrimidin-4-amine] | 302 | – | – | – | 170 | 600 | 185 | 1 | 840 | – |
| CC1CNCCN1c1cc(-c2ccncc2)nc2cnccc12 (stereo not drawn) [Example 303, 4-(2-methylpiperazin-1-yl)-2-(pyridin-4-yl)-1,7-naphthyridine] | – | – | – | – | – | > 10000 | – | – | > 20000 | 10.2 |
